# Measurements: patent US6673578B1, “Method for synthesizing DNA” (Takara Shuzo Co., Ltd., priority 1998, dated 2004)
# Experiments:
# Assay type in all cases: biochemical
# Polymerase A [1] = assay: Combination of spergualins and acidic substances with Polymerase A, 20 kb fragment of E. coli genomic DNA (Example 8(2)); parameters: key: ++: Intensive amplification being observed; +: Amplification being observed; ±: Slight amplification being observed; −: No amplification being observed; details: No 15-deoxyspergualin/2.5 μg sodium alginate, 0.5 μl Polymerase A, 5 ng E. coli genomic DNA, 30 cycles 98°C 5 s-68°C 3 min
# Description: (2) The effects of the combination of spergualins and acidic substances on the DNA polymerase were studied in a case where template DNA was E. coli genomic DNA. The composition for a PCR reagent mixture is shown below.
# The composition for the PCR reagent mixture was the same as that in Item (1) of Example 8, except for using 5 ng of E. coli genomic DNA (manufactured by Takara Shuzo Co., Ltd.) and 10 pmol each of primers of Eco-1 and Eco-6. To the above PCR reagent mixture was added 0.5 μl of Polymerase A, and further were added in combination 2.5 μg of sodium alginate and 15-deoxyspergualin trihydrochloride so as to have a final concentration of 1 μM, 5 μM or 10 μM, respectively, making up a final volume of 50 μl. In addition, as controls, there were respectively prepared a PCR reagent mixture in which 2.5 μg of sodium alginate was only added without adding 15-deoxyspergualin trihydrochloride, and a PCR reagent mixture in which both 15-deoxyspergualin trihydrochloride and sodium alginate were not added.
# Rapid PCR was carried out in 30 cycles for a total time period of PCR of about 110 minutes, wherein one cycle of reaction comprises a process consisting of 98° C., 5 seconds-68° C., 3 minutes. […]
# Polymerase B [2] = assay: Combination of spergualins and acidic substances with Polymerase B, 10 kb fragment of λDNA (Example 8(1)); parameters: key: + to ++++: Extent of amplification is shown in 4 grades.; + to ++++: Extent of amplification is shown in 4 grades.; + to ++++: Extent of amplification is shown in 4 grades.; + to ++++: Extent of amplification is shown in 4 grades.; −: No amplification being observed; details: No 15-deoxyspergualin/2.5 μg sodium alginate, 0.5 μl Polymerase B, 10 pg λDNA, 30 cycles 98°C 5 s-68°C 90 s
# Description: (1) A PCR reagent mixture comprising λDNA as a template and primers λ1 and λ8 as a primer pair was prepared, and rapid PCR was carried out. In this PCR, Polymerase B was used. As the spergualins, 15-deoxyspergualin trihydrochloride was used, and as the acidic substances, sodium alginate (manufactured by Wako Pure Chemicals) was used. The composition for a PCR reagent mixture is shown below.
# 50 mM Tris-acetate buffer (pH 8.5), 0.2 mM each of dATP, dCTP, dGTP and dTTP, 3 mM magnesium acetate, 50 mM potassium acetate, 10 pg of λDNA, 10 pmol each of primers λ1 and λ8. To the above PCR reagent mixture was added 0.5 μl of Polymerase B, and further 15-deoxyspergualin trihydrochloride and sodium alginate were added in combination at concentrations shown in Table 10, making up a final volume of 50 μl. In addition, as controls, there were respectively prepared a PCR reagent mixture in which 2.5 μg of sodium alginate was added without adding 15-deoxyspergualin trihydrochloride, and a PCR reagent mixture in which both 15-deoxyspergualin trihydrochloride and sodium alginate were not added.
# Rapid PCR was carried out in 30 cycles for a total time period of PCR of about 65.5 minutes, wherein one cycle of reaction comprises a process consisting of 98° C., 5 seconds-68° C., 90 seconds. […]
# Polymerase B [3] = assay: Rapid PCR by combination of Polymerase B with acidic substance, 12 kb fragment (Example 6(2)); parameters: key: + to +++: Extent of amplification is shown in 3 grades.; + to +++: Extent of amplification is shown in 3 grades.; + to +++: Extent of amplification is shown in 3 grades; details: 0.5 μl Polymerase B, 10 pg λDNA, 25 μl, 30 cycles 98°C 5 s-68°C 3 min, added 0.75 ng polysaccharide-F or 5 μg sodium alginate
# Description: A PCR reagent mixture comprising λDNA as a template and primers λ1 and λ9 as a primer pair was prepared, and PCR was carried out. The composition for a PCR reagent mixture is as follows.
# Buffer for TaKaRa EX Taq DNA polymerase, 0.2 mM each of dATP, dCTP, dGTP and dTTP, 10 pg of λDNA, 0.5 μl of Polymerase B and 5 pmol each of primers λ1 and λ9 (final volume being 25 μl). Further, 0.75 ng of sulfated-fucose-containing polysaccharide-F or 5 μg of sodium alginate was added, respectively, to the above PCR reagent mixture.
# (§1) The reaction was carried out in 30 cycles, wherein one cycle of reaction comprises a process consisting of 98° C., 5 seconds-68° C., 3 minutes. After the termination of reaction, 5 μl of the resulting sample was electrophoresed on 1% agarose gel containing ethidium bromide in an amount of 0.00005%, thereby confirming an amplified fragment.
# λDNA = assay: Effect of amount of DNA polymerase and acidic substance, PCR of 10 kb fragment (Example 7); details: sodium alginate 2.5 μg added to Polymerase B; image analyzer FM-BIO
# Description: A PCR reagent mixture comprising λDNA as a template and primers λ1 and λ8 as a primer pair was prepared, and PCR was carried out. In this PCR, TaKaRa EX Taq DNA polymerase and Polymerase B were used. The composition for a PCR reagent mixture is shown below.
# Buffer for TaKaRa EX Taq DNA polymerase, 0.2 mM each of dATP, dCTP, dGTP and dTTP, 10 pg of λDNA, 1.25 U of TaKaRa EX Taq DNA polymerase or 0.5 μl of Polymerase B and 10 pmol each of primers λ1 and λ8 (final volume being 50 μl).
# Further, to the above PCR reagent mixture was added 2.5 μg of sodium alginate, to prepare a PCR reagent mixture.
# as §1, with “30 cycles for a total period for PCR of about 80 minutes,” for “30 cycles,”, “C., 2” for “C., 3”, “reaction, 8” for “reaction, 5”
# [4] = target: T1, TaKaRa Taq DNA polymerase (Thermus aquaticus, UniProt P19821); assay: Effects of acidic substances on TaKaRa Taq DNA polymerase, PCR of 8 kb fragment (Example 5(2)); parameters: key: ++: Intensive amplification being observed; +: Amplification being observed; ±: Slight amplification being observed; −: No amplification being observed; details: 10 U TaKaRa Taq, 100 pg λDNA, 25 μl, 30 cycles 98°C 5 s-68°C 3 min, added 0.25 ng polysaccharide-F, 0.25 ng dextran sulfate or 0.5 μg sodium alginate
# T1 construct: purchased Takara Shuzo Co., Ltd
# T1 sequence (P19821 whole entry, the tested form may be a part): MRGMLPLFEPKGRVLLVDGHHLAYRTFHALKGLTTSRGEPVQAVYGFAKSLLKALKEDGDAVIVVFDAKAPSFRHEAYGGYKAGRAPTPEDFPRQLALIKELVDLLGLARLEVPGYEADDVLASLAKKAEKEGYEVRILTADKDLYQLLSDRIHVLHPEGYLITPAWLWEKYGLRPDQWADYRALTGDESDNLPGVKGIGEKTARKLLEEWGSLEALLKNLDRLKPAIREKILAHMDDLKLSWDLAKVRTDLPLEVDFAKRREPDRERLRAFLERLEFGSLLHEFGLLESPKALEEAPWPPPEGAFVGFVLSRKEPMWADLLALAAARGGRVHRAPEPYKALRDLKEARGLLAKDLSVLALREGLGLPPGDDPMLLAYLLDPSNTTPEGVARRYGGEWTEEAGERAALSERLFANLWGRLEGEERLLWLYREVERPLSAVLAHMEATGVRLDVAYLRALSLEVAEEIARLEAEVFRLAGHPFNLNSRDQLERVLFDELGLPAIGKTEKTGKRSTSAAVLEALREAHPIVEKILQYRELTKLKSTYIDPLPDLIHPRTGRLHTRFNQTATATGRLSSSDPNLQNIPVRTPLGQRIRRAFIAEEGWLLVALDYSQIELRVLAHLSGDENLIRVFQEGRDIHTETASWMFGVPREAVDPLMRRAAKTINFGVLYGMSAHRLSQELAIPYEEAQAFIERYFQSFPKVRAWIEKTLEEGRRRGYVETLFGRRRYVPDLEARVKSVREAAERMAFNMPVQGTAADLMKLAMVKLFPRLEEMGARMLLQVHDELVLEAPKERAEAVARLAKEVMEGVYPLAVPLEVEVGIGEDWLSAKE
# Excerpt: Using as acidic substances the sulfated-fucose-containing polysaccharide-F obtained by the process described in Item (1) of Example 5, dextran sulfate powder (manufactured by Onco), or sodium alginate (100 to 150 centipoises, manufactured by Wako Pure Chemicals), the effects of these acidic substances on the activity of TaKaRa Taq DNA polymerase (manufactured by Takara Shuzo Co., Ltd.) were examined.
# A PCR reagent mixture comprising λDNA as a template, primers λ1 and λ7 as a primer pair and TaKaRa Taq DNA polymerase as a DNA polymerase was prepared, and PCR was carried out. The PCR reagent mixture was prepared so as to have the following composition.
# Buffer for TaKaRa Taq DNA polymerase, 10 U of TaKaRa Taq DNA polymerase, 100 pg of λDNA, 0.2 mM each of DATP, dCTP, dGTP and dTTP, and 5 pmol each of primers λ1 and λ7 (final volume being 25 μl). Further, 0.25 ng of the sulfated-fucose-containing polysaccharide-F, 0.25 ng of dextran sulfate powder, or 0.5 μg of sodium alginate were added as acidic substances to the above PCR reagent mixture.
# The reaction was carried out in 30 cycles for a total time period of PCR of about 110 minutes, wherein one cycle of reaction comprises a process consisting of 98° C., 5 seconds-68° C., 3 minutes. […]
# Polymerase A [5] = assay: Rapid PCR by combination of Polymerase A with acidic substance, about 10 kb fragment (Example 6(1)); parameters: key: ++: Intensive amplification being observed; +: Amplification being observed; ±: Slight amplification being observed; −: No amplification being observed; details: 0.5 μl Polymerase A, 10 pg λDNA, 2.5 μg sodium alginate, 30 cycles 98°C 5 s-68°C 75 s
# Description: (1) Rapid PCR by Combination of Polymerase A with Acidic Substance Using λDNA as template, a PCR reagent mixture comprising λDNA as a template, primers λ1 and λ8 as a primer pair was prepared, and PCR was carried out. The composition for a PCR reagent mixture is as follows.
# 50 mM Tris-acetate (pH 8.5), 0.2 mM each of dATP, dCTP, dGTP and dTTP, 3 mM magnesium acetate, 50 mM potassium acetate, 10 pg of λDNA, 0.5 μl of Polymerase A and 10 pmol each of primers λ1 and λ8 (final volume being 25 μl). Further, 2.5 μg of sodium alginate was added to the above PCR reagent mixture. As a control, a PCR reagent mixture without adding sodium alginate was also prepared.
# Reaction Conditions: The reaction was carried out in 30 cycles, wherein one cycle of reaction comprises a process consisting of 98° C., 5 seconds-68° C., 75 seconds. The reaction was carried out in fast mode using TaKaRa PCR Thermal Cycler PERSONAL (manufactured by Takara Shuzo Co., Ltd.).
# After the termination of reaction, 6 μl each of the resulting sample was electrophoresed on 1% agarose gel containing ethidium bromide in an amount of 0.00005%, thereby confirming an amplified fragment of about 10 kb.
Substance,Amplification Results (Polymerase A [1]),Amplification Results (Polymerase B [2]),Amplification Results (Polymerase B [3]),Amount of the amplified product compared to the case where no sodium alginate was added (λDNA),Amplification Results [4],Amplification Results (Polymerase A [5])
sodium alginate,±,+,+++,about five times,++,++
dextran sulfate [Dextran Sulfate Powder],–,–,–,–,++,–
